Entries after “also recorded” stand apart in the source; their conditions may differ. Where two headings read alike, the source gives them in different places.
How the values were obtained:
[1] = test system: matrix metalloproteinase-9 (MMP-9) mRNA; experiment: Real-Time PCR (qPCR) gene expression in Hep G2 cells, MMP-9; format: cell-based, human
Protocol: (§1) Hep G2 cells were used to establish cell cultures (2 × 10^4 cells/well). After 24 h of incubation with chemicals at concentration of 50 µM/L or with 1% v/v DMSO (control), the cells were suspended in RL buffer (EURx, Gdansk, Poland) and the total RNA was extracted using Universal RNA purification Kit (EURx, Gdansk, Poland), according to the manufacturer’s protocol. For cDNA synthesis, MMLV reverse transcriptase (Promega, Madison, WI, USA) was used. The reverse transcription reaction was performed with ProFlex PCR System (Applied Biosystems, Foster City, CA, USA). The QuantStudio 7 Flex (Applied Biosystems, Foster City, CA, USA) was employed for the real-time PCR (qPCR). The following Taq-Man human probes (Applied Biosystems) were used for qPCR reaction: VEGFA (Hs00173626_m1), VIM (001855284_m1), MMP-2 (Hs00234422_m1), MMP-9 (Hs00234579_m1) and GAPDH (Hs99999905_m1). Blank qPCR Master Mix (EURx) was used according to the manufacturer’s instructions. Expression data were normalized on the mean housekeeping gene (GAPDH) as a reference. mRNA expressions were obtained with the 2^−ΔΔCt method and relative expression values were presented, as previously published.

Hep G2 cells [2] = experiment: Antiproliferative MTT assay, tumour cells; format: cell-based; conditions: for IC50: MTT assay, 72 h exposure, M ± SD, n = 3, read-out: IC50 for Cancer HEP G2 Cells
CHO-K1 cells [3] = conditions: read-out: IC50 for Noncancerous CHO-K1 Cells, cited from earlier work
[4] = test system: matrix metalloproteinase-2 (MMP-2) mRNA; experiment: Real-Time PCR (qPCR) gene expression in Hep G2 cells, MMP-2; format: cell-based, human
Protocol: as §1

Hep G2 cells [5] = experiment: Apoptosis and necrosis detection by flow cytometry, tumour cells; format: cell-based; conditions: Hep G2, 50 µM/L, 24 h, Annexin V/EthD-III flow cytometry
Protocol: (§2) For flow cytometry analyses, CHO-K1 and Hep G2 cells were plated in triplicates into 6-well plates (Sarstedt) at a density of 2 × 10^4 cells per well. The cells were treated for 24 h with tested complexes/comparator salts at concentration of 50 µM/L. Control cells were exposed to DMSO (1% v/v)for 24 h. Then, the cells were detached using Trypsin-EDTA solution, washed with buffered PBS (Lonza, Walkersville, MD, USA), centrifuged at 350× g for 5 min and suspended in binding buffer. Flow cytometry analysis was performed according to the manufacturer’s instructions (Biotium, Hayward, CA, USA). Fluorescent dyes, 488-AnnexinV (excitation maximum at 490 nm/emission maximum at 515 nm) and/or Ethidium homodimer (EthD-III; excitation maximum at 528 nm/emission maximum at 617 nm) were added to cell suspensions. To correct discrimination between cells and debris, SYTO 41 Blue Fluorescent Nucleic Acid Stain was used (excitation maximum at […]). The cells were incubated in dark for 15 min with appropriate dye/dyes and analysed using flow cytometer FACSCanto10C with BD FACSDiva 8.1 System Software (BD Biosciences Immunocytometry Systems, San Jose, CA, USA). The cells were gated according to forward (FSC), side scatter (SSC) and fluorescence parameters (FITC channel was used for 488-AnnexinV and Texas Red channel was used for EthD-III). The results are given as the percentage of apoptotic or necrotic cells of total counted cells.

[6] = test system: Glutathione Peroxidase (GPx); experiment: Extracellular glutathione peroxidase activity in Hep G2 culture medium; format: cell-based; conditions: HepG2 culture medium, 50 μM/L, 24 h
Protocol: (§3) Glutathione peroxidase (GPx) activity was assayed spectrophotometrically in culture medium and enzyme function against reactive oxygen species was investigated according to Adachi et al., Comhair et al. and Howie et al. with modification of Zagrodzki, using hydrogen peroxide (H2O2) as a substrate. For experiment, cell cultures of CHO-K1 and Hep G2 cells were established with initial density of the cells as 2 × 10^4 cells/well. Then, the cells were exposed to 50 µM/L of each chemical for 24 h (control cells were incubated with 1% v/v of DMSO) and cell media were collected. Briefly, the samples were incubated with mixture of sodium azide, glutathione reductase, glutathione, reduced β-nicotinamide adenine dinucleotide phosphate (NADPH) and sodium phosphate (pH 7.6) for 2 min at 25 °C and the reaction was initiated by the addition of H2O2. NADPH was converted to NADP and the amount of the product was proportional to GPx activity. The decrease in absorbance at 340 nm over 3 min was recorded using a microplate reader Infinite M200 Pro, Tecan, Austria. The mean value was calculated and expressed as U/L of the cell culture medium.

CHO-K1 cells [7] = experiment: Cell growth assessment (cell counting), noncancerous cells; format: cell-based; conditions: CHO-K1, 50 µM/L, 72 h incubation
Protocol: (§4) For experiments, the cells were seeded at low density (3 × 10^3/mL) into the 6-well plates (Sarstedt, Numbrecht, Germany) and kept for 24 h. Then, the medium was replaced for new one, containing 50 µM/L of tested compound or 1% v/v of DMSO (control). The time points of incubations were set at 24, 48 or 72 h. At the end of each experiment, the cells were gently detached with Trypsin-EDTA solution (Life Technologies), suspended with appropriate growth medium with addition of 10% v/v FBS and centrifuged at 350× g for 5 min. Finally, the cells were suspended in buffered PBS (Sigma-Aldrich) and counted.

[8] = test system: vascular endothelial growth factor a (VEGFa) mRNA; experiment: Real-Time PCR (qPCR) gene expression in Hep G2 cells, VEGFa; format: cell-based, human; conditions: Hep G2, 50 μM/L, 24 h, normalized to GAPDH
Protocol: as §1

HepG2 cells [9] = experiment: Trypan blue exclusion test, tumour cells; format: cell-based; conditions: HepG2, 50 µM/L, p < 0.01 vs. control; for Viable cells vs. control (trypan blue exclusion): 24 h exposure; for Cytotoxicity / cell viability vs. control (trypan blue exclusion): 72 h exposure
Protocol: (§5) CHO-K1 and HepG2 cells were seeded into 6-well plates (Sarstedt, Numbrecht, Germany) at a density of 2 × 10^4 cells/well and then incubated for 24 h. The cell monolayers were washed with PBS solution (Sigma-Aldrich) and medium in each well was replaced with a new one, with addition of 50 µM/L of tested compound. Then, the cells were incubated in standard conditions for 24, 48 or 72 h. The cells cultured in the medium with addition of 1% v/v DMSO (Sigma-Aldrich) were positive controls (100% of growth). After incubation, the cells were detached using Trypsin-EDTA solution (Life Technologies) and suspended in buffered PBS (Sigma-Aldrich). Trypan Blue Exclusion dye (0.4% v/v, Sigma-Aldrich, Germany) was added to each cell culture and samples were kept at room temperature for 5 min. Then, the numbers of live cells (unstained) and dead cells (blue) in each population exposed to tested chemicals/dissolvent were measured with an automatic cell counter.

CHO-K1 cells [10] = experiment: Apoptosis and necrosis detection by flow cytometry, noncancerous cells; format: cell-based; conditions: CHO-K1, 50 µM/L, 24 h, Annexin V/EthD-III flow cytometry
Protocol: as §2

CHO-K1 cells [11] = experiment: Trypan blue exclusion test, noncancerous cells; format: cell-based; conditions: CHO-K1, 50 µM/L, 24 h exposure, p < 0.05 vs. control
Protocol: as §5

CHO-K1 cells [12] = experiment: Antiproliferative MTT assay, noncancerous cells; format: cell-based; conditions: 72 h exposure, M ± SD, n = 3
[13] = test system: Glutathione Peroxidase (GPx); experiment: Extracellular glutathione peroxidase activity in CHO-K1 culture medium; format: cell-based
Protocol: as §3

HepG2 cells [14] = experiment: Cell growth assessment (cell counting), tumour cells; format: cell-based; conditions: HepG2, 50 µM/L, 72 h incubation
Protocol: as §4

vimentin (Vim) mRNA = experiment: Real-Time PCR (qPCR) gene expression in Hep G2 cells, vimentin; format: cell-based, human; conditions: Hep G2, 50 μM/L, 24 h, normalized to GAPDH
Protocol: as §1

Hep G2 cells [15] = test system: Hep G2 cells; set-up: method as in doi:10.1039/C6RA06439F; conditions: read-out: IC50 for Cancer HEP G2 Cells, cited from earlier work
[16] = Hep G2, 50 μM/L, 24 h, normalized to GAPDH
[17] = MTT assay, 72 h exposure, M ± SD
[18] = CHO-K1 culture medium, 50 μM/L, 24 h

SMILES | MMP-9 mRNA expression vs. control [1, 16] | IC50 (Hep G2 cells [2]) | Antiproliferative Index IC50 CHO-K1/IC50 HEP G2 (Hep G2 cells [2]; ratio of MTT IC50 values, 72 h) | MMP-2 mRNA expression vs. control [4, 16] | Apoptosis (Hep G2 cells [5]) | GPx activity vs. control [6] | VEGFa mRNA expression vs. control [8] | Viable cells vs. control (trypan blue exclusion) (HepG2 cells [9]) | Cytotoxicity / cell viability vs. control (trypan blue exclusion) (HepG2 cells [9]) | Antiproliferative Index IC50 CHO-K1/IC50 HEP G2 (Hep G2 cells [2]) | Cell death (apoptosis/necrosis) (CHO-K1 cells [10]) | Viable cells vs. control (trypan blue exclusion) (CHO-K1 cells [11]) | IC50 (CHO-K1 cells [12]) | Necrosis (Hep G2 cells [5]) | GPx activity vs. control [13, 18] | Vim mRNA expression vs. control (vimentin (Vim) mRNA) | other results
O=S(=O)([O-])[O-].[O]=[V+2] [VOSO4, reference compound] | did not exert any effect | 75.6 ± 8 µM | 1.3 | did not exert any effect | much weaker than complex 3 | elevated the enzyme activity |  |  |  |  |  |  |  |  |  |  | IC50 (CHO-K1 cells [3]; [17]): 98.3 ± 9 µM
Cc1cc(C)n(CNCn2nc(C)cc2C)n1.[Co+2].[N-]=C=S.[N-]=C=S [Complex 2, [CoL^D(NCS)2]] |  | 38.2 ± 5 µM |  |  |  |  | significantly hampered VEGFa expression | statistically significant decrease in viable cells | statistically significant toxic effect | 7.0 | minor | statistically significant decrease in viable cells | 268 ± 15 µM | caused mainly necrotic cell death | elevated the enzyme activity |  | Cell growth vs. control (CHO-K1 cells [7]): lowest inhibitory potency
CO.Cc1cc(C)n(CNCn2nc(C)cc2C)n1.Cc1cc(C)n(CNCn2nc(C)cc2C)n1.[Co+2].[I-].[I-] [Complex 1, [Co(L^D)2]I2∙CH3OH] |  | 22 ± 4 µM | 5.5 |  |  |  | significantly hampered VEGFa expression | statistically significant decrease in viable cells | statistically significant toxic effect; also recorded: greatest decrease in Hep G2 cell viability |  | minor | statistically significant decrease in viable cells | 122 ± 10 µM | caused mainly necrotic cell death | elevated the enzyme activity | decreased Vim expression | Cell growth vs. control (HepG2 cells [14]): greatest inhibitory effect
N.N.[Cl][Pt][Cl] [Cisplatin, cisplatin, reference compound] |  |  | 0.9 |  |  |  |  |  |  |  |  |  | 19.1 ± 2 µM |  |  |  | IC50 (Hep G2 cells [15]; [17]): 21.3 ± 2 µM
[Cl-].[Cl-].[Co+2] [CoCl2] |  |  |  |  |  |  |  |  |  | 1.1 |  |  |  |  |  |  | MMP-9 mRNA expression vs. control [1]: did not changed transcript level for MMP-9; IC50 (CHO-K1 cells [3]): 176 µM; MMP-2 mRNA expression vs. control [4]: decreased mRNA for MMP-2; IC50 (Hep G2 cells [15]): 160 µM; GPx activity vs. control [13]: did not exert any effect
Cc1cc(C)n(CNCn2nc(C)cc2C)n1.Cc1ccccc1.[N-]=C=S.[N-]=C=S.[O]=[V+2] [Complex 3, [VOL^D(NCS)2]∙C6H5CH3] | greatest inhibitory effect | 45.6 ± 5 µM | 2.7 | greatest inhibitory effect | most active promotor of apoptosis | decreased GPx activity | significantly hampered VEGFa expression | statistically significant decrease in viable cells | statistically significant toxic effect |  | minor | statistically significant decrease in viable cells | 123 ± 3 µM |  | did not disturb antioxidant enzyme activity | decreased Vim expression | 

Source: article PMC7917659, “Selective Cytotoxicity of Complexes with N,N,N-Donor Dipodal Ligand in Tumor Cells” (International Journal of Molecular Sciences, 2021)
